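1) Cells in 96-well plates. 2) Compound, 48 h, 5 concentrations. 3) Linear interpolation between surrounding doses. 4) Unreached endpoint = highest concentration. GI50: concentration for 50% inhibition of growth. TGI denotes the concentration required for complete inhibition of growth.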
Assays:
Experiment in all cases: NCI anticancer screen, dose series, 48 h
A549 NSCLC = tested on: A549 NSCLC
MCF7 breast = tested on: MCF7 breast
CCRF-CEM leukemia = tested on: CCRF-CEM leukemia
SF-539 CNS = tested on: SF-539 CNS
ACHN renal = tested on: ACHN renal
UO-31 renal = tested on: UO-31 renal
HT29 colon = tested on: HT29 colon
HL-60(TB) leukemia = tested on: HL-60(TB) leukemia
IGROV1 ovarian = tested on: IGROV1 ovarian
NCI-H226 lung = tested on: NCI-H226 lung
KM12 colon = tested on: KM12 colon
RPMI-8226 leukemia = tested on: RPMI-8226 leukemia
HCT-116 colon = tested on: HCT-116 colon
SNB-75 CNS = tested on: SNB-75 CNS
HOP-92 NSCLC = tested on: HOP-92 NSCLC
NCI-H522 lung = tested on: NCI-H522 lung
EKVX NSCLC = tested on: EKVX NSCLC
MDA-MB-231 breast = tested on: MDA-MB-231 breast
MALME-3M melanoma = tested on: MALME-3M melanoma
HS 578T breast = tested on: HS 578T breast
SF-268 CNS = tested on: SF-268 CNS
T-47D breast = tested on: T-47D breast
RXF 393 renal = tested on: RXF 393 renal
SR leukemia = tested on: SR leukemia
HOP-62 NSCLC = tested on: HOP-62 NSCLC
SN12C renal = tested on: SN12C renal
SK-MEL-2 melanoma = tested on: SK-MEL-2 melanoma
OVCAR-5 ovarian = tested on: OVCAR-5 ovarian
SK-MEL-5 melanoma = tested on: SK-MEL-5 melanoma
M14 melanoma = tested on: M14 melanoma
OVCAR-3 ovarian = tested on: OVCAR-3 ovarian
CAKI-1 renal = tested on: CAKI-1 renal
NCI-H460 lung = tested on: NCI-H460 lung
UACC-62 melanoma = tested on: UACC-62 melanoma
DU-145 prostate = tested on: DU-145 prostate
LOX IMVI melanoma = tested on: LOX IMVI melanoma
OVCAR-4 ovarian = tested on: OVCAR-4 ovarian
A498 renal = tested on: A498 renal
UACC-257 melanoma = tested on: UACC-257 melanoma
PC-3 prostate = tested on: PC-3 prostate
MOLT-4 leukemia = tested on: MOLT-4 leukemia
SW-620 colon = tested on: SW-620 colon
HCT-15 colon = tested on: HCT-15 colon
MDA-MB-435 = tested on: MDA-MB-435
COLO 205 colon = tested on: COLO 205 colon
OVCAR-8 ovarian = tested on: OVCAR-8 ovarian
U251 CNS = tested on: U251 CNS
SF-295 CNS = tested on: SF-295 CNS
HCC-2998 colon = tested on: HCC-2998 colon
NCI/ADR-RES ovarian = tested on: NCI/ADR-RES ovarian
SK-MEL-28 melanoma = tested on: SK-MEL-28 melanoma
786-0 renal = tested on: 786-0 renal
NCI-H23 lung = tested on: NCI-H23 lung
BT-549 breast = tested on: BT-549 breast

For `CN1CCN(c2ccc3nc(-c4ccc5nc(-c6ccc(C(F)(F)F)cc6)[nH]c5c4)[nH]c3c2)CC1`, the GI50 (A549 NSCLC) was 1.94 µM, the TGI (A549 NSCLC) was 3.91 µM and the GI50 (MCF7 breast) was 0.578 µM. The TGI (MCF7 breast) was 2.19 µM, the GI50 (CCRF-CEM leukemia) was 1.56 µM and the TGI (CCRF-CEM leukemia) was 3.68 µM. For the same compound, the GI50 (SF-539 CNS) was 1.62 µM, the TGI (SF-539 CNS) was 3.09 µM and the GI50 (ACHN renal) was 3.94 µM. For the same compound, the TGI (ACHN renal) was 17.7 µM, the GI50 (UO-31 renal) was 12.5 µM and the TGI (UO-31 renal) was 28 µM. It also gave a GI50 (HT29 colon) of 1.41 µM, a TGI (HT29 colon) of 3.13 µM and a GI50 (HL-60(TB) leukemia) of 1.47 µM. The TGI (HL-60(TB) leukemia) was 3.45 µM, the GI50 (IGROV1 ovarian) was 6.13 µM and the TGI (IGROV1 ovarian) was 21.7 µM. It also gave a GI50 (NCI-H226 lung) of 9.59 µM, a TGI (NCI-H226 lung) of 29.9 µM and a GI50 (KM12 colon) of 1.74 µM. It also gave a TGI (KM12 colon) of 3.27 µM, a GI50 (RPMI-8226 leukemia) of 2.06 µM and a TGI (RPMI-8226 leukemia) of 4.51 µM. For the same compound, the GI50 (HCT-116 colon) was 1.28 µM, the TGI (HCT-116 colon) was 2.6 µM and the GI50 (SNB-75 CNS) was 1.87 µM. For the same compound, the TGI (SNB-75 CNS) was 9.97 µM, the GI50 (HOP-92 NSCLC) was 2.49 µM and the TGI (HOP-92 NSCLC) was 14.7 µM. The GI50 (NCI-H522 lung) was 1.47 µM, the TGI (NCI-H522 lung) was 3.39 µM and the GI50 (EKVX NSCLC) was 2.06 µM. The TGI (EKVX NSCLC) was 4.38 µM, the GI50 (MDA-MB-231 breast) was 2.11 µM and the TGI (MDA-MB-231 breast) was 3.85 µM. For the same compound, the GI50 (MALME-3M melanoma) was 1.08 µM, the TGI (MALME-3M melanoma) was 2.44 µM and the GI50 (HS 578T breast) was 2.03 µM. The TGI (HS 578T breast) was 4.49 µM, the GI50 (SF-268 CNS) was 1.97 µM and the TGI (SF-268 CNS) was 3.93 µM. The GI50 (T-47D breast) was 1.38 µM, the TGI (T-47D breast) was 3.33 µM and the GI50 (RXF 393 renal) was 1.53 µM. The TGI (RXF 393 renal) was 3.12 µM, the GI50 (SR leukemia) was 1.7 µM and the TGI (SR leukemia) was 5.11 µM. For the same compound, the GI50 (HOP-62 NSCLC) was 1.63 µM, the TGI (HOP-62 NSCLC) was 3.42 µM and the GI50 (SN12C renal) was 1.9 µM. For the same compound, the TGI (SN12C renal) was 3.96 µM, the GI50 (SK-MEL-2 melanoma) was 1.87 µM and the TGI (SK-MEL-2 melanoma) was 3.5 µM. The GI50 (OVCAR-5 ovarian) was 2.68 µM, the TGI (OVCAR-5 ovarian) was 6.58 µM and the GI50 (SK-MEL-5 melanoma) was 3.36 µM. For the same compound, the TGI (SK-MEL-5 melanoma) was 15.5 µM, the GI50 (M14 melanoma) was 1.36 µM and the TGI (M14 melanoma) was 2.89 µM. For the same compound, the GI50 (OVCAR-3 ovarian) was 1.58 µM, the TGI (OVCAR-3 ovarian) was 3.1 µM and the GI50 (CAKI-1 renal) was 2.97 µM. The TGI (CAKI-1 renal) was 15.7 µM, the GI50 (NCI-H460 lung) was 1.9 µM and the TGI (NCI-H460 lung) was 3.55 µM. The GI50 (UACC-62 melanoma) was 1.58 µM, the TGI (UACC-62 melanoma) was 3.05 µM and the GI50 (DU-145 prostate) was 1.76 µM. For the same compound, the TGI (DU-145 prostate) was 3.25 µM, the GI50 (LOX IMVI melanoma) was 1.82 µM and the TGI (LOX IMVI melanoma) was 3.36 µM. It also gave a GI50 (OVCAR-4 ovarian) of 1.74 µM, a TGI (OVCAR-4 ovarian) of 3.45 µM and a GI50 (A498 renal) of 10.7 µM. The TGI (A498 renal) was 29.6 µM, the GI50 (UACC-257 melanoma) was 1.75 µM and the TGI (UACC-257 melanoma) was 3.42 µM. For the same compound, the GI50 (PC-3 prostate) was 1.66 µM, the TGI (PC-3 prostate) was 3.79 µM and the GI50 (MOLT-4 leukemia) was 2.33 µM. For the same compound, the TGI (MOLT-4 leukemia) was 4.96 µM, the GI50 (SW-620 colon) was 1.47 µM and the TGI (SW-620 colon) was 3.09 µM. For the same compound, the GI50 (HCT-15 colon) was 7.48 µM, the TGI (HCT-15 colon) was 24.5 µM and the GI50 (MDA-MB-435) was 1.66 µM. It also gave a TGI (MDA-MB-435) of 3.1 µM, a GI50 (COLO 205 colon) of 1.37 µM and a TGI (COLO 205 colon) of 2.93 µM. It also gave a GI50 (OVCAR-8 ovarian) of 2.02 µM, a TGI (OVCAR-8 ovarian) of 4.7 µM and a GI50 (U251 CNS) of 1.62 µM. It also gave a TGI (U251 CNS) of 3.04 µM, a GI50 (SF-295 CNS) of 2.44 µM and a TGI (SF-295 CNS) of 9.51 µM. For the same compound, the GI50 (HCC-2998 colon) was 1.98 µM, the TGI (HCC-2998 colon) was 3.57 µM and the GI50 (NCI/ADR-RES ovarian) was 25.7 µM. The TGI (NCI/ADR-RES ovarian) was > 100 µM, the GI50 (SK-MEL-28 melanoma) was 1.77 µM and the TGI (SK-MEL-28 melanoma) was 3.34 µM. It also gave a GI50 (786-0 renal) of 3.3 µM, a TGI (786-0 renal) of 12.7 µM and a GI50 (NCI-H23 lung) of 1.71 µM. It also gave a TGI (NCI-H23 lung) of 3.5 µM, a GI50 (BT-549 breast) of 5.91 µM and a TGI (BT-549 breast) of 22.5 µM.

Source: PubChem BioAssay (NCI)
